Experimental data published in paper PMC9516332 (Frontiers in Oncology, 2022).
Like-named read-outs stand apart in the source and are kept apart here.

Assays:
Assay in all cases: Kinase panel profiling at 1 µmol/L (MSA or IMAP), percentage inhibition
Format in all cases: biochemical
[1] = target: panel of 255 wild-type kinases (Homo sapiens, UniProt P06213); details: read-out: %-inhibition at 1 µmol/L, INSR
[2] = target: panel of 255 wild-type kinases (Homo sapiens, UniProt P08581); details: MET; 1 µmol/L single concentration
[3] = target: panel of 255 wild-type kinases (Homo sapiens, UniProt P43405); details: read-out: %-inhibition at 1 µmol/L, SYK
[4] = target: panel of 255 wild-type kinases (Homo sapiens, UniProt P49761); details: read-out: %-inhibition at 1 µmol/L, CLK3
[5] = target: panel of 255 wild-type kinases (Homo sapiens, UniProt P51617); details: read-out: %-inhibition at 1 µmol/L, IRAK1
[6] = target: panel of 255 wild-type kinases (Homo sapiens, UniProt P54764); details: read-out: %-inhibition at 1 µmol/L, EPHA4
[7] = target: panel of 255 wild-type kinases (Homo sapiens, UniProt Q00526); details: read-out: %-inhibition CDK3/CycE1
[8] = target: panel of 255 wild-type kinases (Homo sapiens, UniProt Q05397); details: read-out: %-inhibition at 1 µmol/L, FAK
[9] = target: panel of 255 wild-type kinases (Homo sapiens, UniProt Q13464); details: read-out: %-inhibition at 1 µmol/L, ROCK1
[10] = target: panel of 255 wild-type kinases (Homo sapiens, UniProt Q13557); details: read-out: %-inhibition CaMK2δ
[11] = target: T1, panel of 255 wild-type kinases (Homo sapiens, UniProt Q13976); details: read-out: %-inhibition at 1 µmol/L, PGK
T1 sequence (Q13976 1-671): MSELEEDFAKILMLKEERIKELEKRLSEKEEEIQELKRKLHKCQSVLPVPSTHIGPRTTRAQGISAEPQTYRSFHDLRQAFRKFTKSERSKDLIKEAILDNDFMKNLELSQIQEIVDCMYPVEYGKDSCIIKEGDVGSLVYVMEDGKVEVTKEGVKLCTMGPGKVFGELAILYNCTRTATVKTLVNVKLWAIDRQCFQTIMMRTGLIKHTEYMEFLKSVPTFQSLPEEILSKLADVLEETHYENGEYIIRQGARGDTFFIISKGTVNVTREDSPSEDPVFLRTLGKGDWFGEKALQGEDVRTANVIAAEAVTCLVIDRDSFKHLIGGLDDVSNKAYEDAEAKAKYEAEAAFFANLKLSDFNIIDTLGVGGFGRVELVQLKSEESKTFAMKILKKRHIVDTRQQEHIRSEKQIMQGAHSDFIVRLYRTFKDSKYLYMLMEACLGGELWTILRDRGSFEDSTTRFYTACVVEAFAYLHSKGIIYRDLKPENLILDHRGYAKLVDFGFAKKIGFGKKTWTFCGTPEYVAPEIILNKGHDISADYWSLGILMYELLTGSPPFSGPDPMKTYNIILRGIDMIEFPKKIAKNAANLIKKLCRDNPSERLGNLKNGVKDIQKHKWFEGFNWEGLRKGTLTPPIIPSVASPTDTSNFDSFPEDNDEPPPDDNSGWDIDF

[12] = target: panel of 255 wild-type kinases (Homo sapiens, UniProt Q9HC98); details: read-out: %-inhibition, NEK6
[13] = target: T2, panel of 255 wild-type kinases (Homo sapiens, UniProt Q9UF33); details: read-out: %-inhibition at 1 µmol/L, EPHA6
T2 sequence (Q9UF33 23-1036): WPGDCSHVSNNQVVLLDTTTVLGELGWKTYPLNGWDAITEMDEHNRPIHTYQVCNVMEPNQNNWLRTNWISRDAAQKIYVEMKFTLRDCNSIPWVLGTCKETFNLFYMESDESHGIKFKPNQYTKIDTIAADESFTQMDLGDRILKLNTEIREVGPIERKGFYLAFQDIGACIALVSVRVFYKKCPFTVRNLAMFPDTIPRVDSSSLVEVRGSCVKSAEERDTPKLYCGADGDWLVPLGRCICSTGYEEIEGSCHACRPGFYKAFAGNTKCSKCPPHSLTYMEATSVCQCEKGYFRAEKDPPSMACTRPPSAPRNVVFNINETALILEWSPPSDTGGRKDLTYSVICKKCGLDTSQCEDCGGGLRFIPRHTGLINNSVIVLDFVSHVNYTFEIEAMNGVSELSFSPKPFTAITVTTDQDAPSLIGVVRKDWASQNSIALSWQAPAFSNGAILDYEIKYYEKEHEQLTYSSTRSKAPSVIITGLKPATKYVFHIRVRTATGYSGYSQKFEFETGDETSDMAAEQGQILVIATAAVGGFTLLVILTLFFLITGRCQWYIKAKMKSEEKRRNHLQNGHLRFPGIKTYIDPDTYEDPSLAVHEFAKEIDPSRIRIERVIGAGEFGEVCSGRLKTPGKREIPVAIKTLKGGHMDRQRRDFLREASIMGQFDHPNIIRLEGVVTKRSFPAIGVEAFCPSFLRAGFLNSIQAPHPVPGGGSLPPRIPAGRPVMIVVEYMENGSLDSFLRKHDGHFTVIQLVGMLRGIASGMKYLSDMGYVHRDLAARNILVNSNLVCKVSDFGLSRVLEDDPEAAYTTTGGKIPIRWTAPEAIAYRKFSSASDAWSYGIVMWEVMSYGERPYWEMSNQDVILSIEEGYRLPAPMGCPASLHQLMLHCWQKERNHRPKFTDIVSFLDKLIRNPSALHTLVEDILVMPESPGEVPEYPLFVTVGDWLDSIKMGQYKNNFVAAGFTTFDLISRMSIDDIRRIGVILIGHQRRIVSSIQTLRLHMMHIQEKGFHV

[14] = kinase INSR, 1 µmol/L single concentration
[15] = kinase SYK, 1 µmol/L single concentration
[16] = kinase CLK3, 1 µmol/L single concentration
[17] = kinase IRAK1, 1 µmol/L single concentration
[18] = kinase EPHA4, 1 µmol/L single concentration
[19] = CDK3/CycE1 kinase assay, 1 µmol/L single concentration
[20] = kinase FAK, 1 µmol/L single concentration
[21] = kinase ROCK1, 1 µmol/L single concentration
[22] = CaMK2δ kinase assay, 1 µmol/L single concentration
[23] = kinase PGK, 1 µmol/L single concentration
[24] = NEK6, 1 µmol/L single concentration
[25] = kinase EPHA6, 1 µmol/L single concentration

| SMILES | inhibition at 1 µM [1, 14] [%] | inhibition at 1 µM [2] [%] | inhibition at 1 µM [3, 15] [%] | inhibition at 1 µM [4, 16] [%] | inhibition at 1 µM [5, 17] [%] | inhibition at 1 µM [6, 18] [%] | inhibition at 1 µM [7, 19] [%] | inhibition at 1 µM [8, 20] [%] | inhibition at 1 µM [9, 21] [%] | inhibition at 1 µM [10, 22] [%] | inhibition at 1 µM [11, 23] [%] | inhibition at 1 µM [12, 24] [%] | inhibition at 1 µM [13, 25] [%] | other results |
| --- | --- | --- | --- | --- | --- | --- | --- | --- | --- | --- | --- | --- | --- | --- |
| CO[C@]1(C(=O)N[C@@H](C)c2ccc(-n3cc(F)cn3)nc2)CC[C@H](c2nc(C)cc(Nc3cc(C)[nH]n3)n2)CC1 [pralsetinib] | 10 | 5.27 | 85 | 9 | 9 | 52 | 42 | 14 | 3.43 | -1 | 13 | -0.0459 | 87 | – |
| COc1cc2ncnc(Nc3ccc(F)c(Cl)c3)c2cc1NC(=O)/C=C/CN1CCCCC1 [dacomitinib] | 1.81 | 24 | -8 | 2.5 | 76 | 38 | -1.66 | -0.575 | -2.68 | 9 | 4 | -4.7 | 98 | – |
| CCn1c(=O)c(-c2cc(NC(=O)Nc3ccccc3)c(F)cc2Br)cc2cnc(NC)cc21 [ripretinib] | 1.55 | 8 | -8 | -7 | -5.68 | 101 | -4.34 | 0.833 | -2.14 | 0.353 | -0.449 | -4 | 99 | – |
| FC(F)(F)c1ccc(CNc2ccc(Cc3c[nH]c4ncc(Cl)cc34)cn2)cn1 [pexidartinib] | 17 | – | -6 | 18 | -5 | 1.65 | -1.23 | 30 | 9 | 5.41 | 14 | -0.796 | 18 | – |
| CN1CCN(c2ccc(C(=O)Nc3n[nH]c4ccc(Cc5cc(F)cc(F)c5)cc34)c(NC3CCOCC3)c2)CC1 [entrectinib] | 94 | 24 | -5.27 | 3.46 | 16 | 28 | 5.63 | – | 4.51 | 28 | – | -1.86 | 44 | – |
| C[C@H]1Oc2cc(cnc2N)-c2c(nn(C)c2C#N)CN(C)C(=O)c2ccc(F)cc21 [lorlatinib] | 64 | 4.66 | 16 | 0.641 | 10 | 25 | 3 | – | 3.64 | 36 | 0.684 | -0.382 | 76 | – |
| CCN1CCN(c2ccc(Nc3cc(N(C)C(=O)Nc4c(Cl)c(OC)cc(OC)c4Cl)ncn3)cc2)CC1 [infigratinib] | 17 | 0.848 | -17 | 12 | – | 0.256 | -10 | -4.48 | 0.396 | -1.48 | -2 | -2.62 | 28 | – |
| CNC(=O)c1ccc(-c2cnc3ncc(Cc4ccc5ncccc5c4)n3n2)cc1F [capmatinib] | – | – | – | – | – | – | – | – | – | – | – | – | – | inhibition at 1 µM [1]: 4.5%; inhibition at 1 µM [3]: 2.11%; inhibition at 1 µM [4]: 8%; inhibition at 1 µM [5]: 35%; inhibition at 1 µM [6]: -2.77%; inhibition at 1 µM [7]: -14%; inhibition at 1 µM [8]: -6%; inhibition at 1 µM [9]: 1.06%; inhibition at 1 µM [10]: -1.07%; inhibition at 1 µM [11]: -4.5%; inhibition at 1 µM [12]: -4%; inhibition at 1 µM [13]: -2% |
